Measured values published in PMC6584114, “Metabolism of IMM-H004 and Its Pharmacokinetic-Pharmacodynamic Analysis in Cerebral Ischemia/Reperfusion Injured Rats” (Frontiers in Pharmacology, 2019).

Key:
[1] = test system: rat liver microsomes (RLMs); test: Kinetics of IMM-H004 demethylation (M1 and M2 formation) in rat liver microsomes; format: in vitro ADME; details: substrate IMM-H004
Procedure: (§1) To compare the metabolic capability of IMM-H004 demethylation in rat and human liver microsomes, the kinetics of M1 and M2 formation in HLMs or RLMs were determined. Enzyme kinetic experiments were performed in triplicate. The incubation mixtures contained HLM/RLM (1 mg protein/ml), IMM-H004 (0.1–1,800 μM), and NADPH (1.2 mM) in a final volume of 0.2 ml Tris-HCl buffer (50 mM, pH 7.4) containing 5 mM MgCl2. The reaction was incubated at 37°C for 20 min and stopped by adding 200 μL of ice-cold acetonitrile containing IS (100 ng/ml). After vortex-mixing and centrifugation, M1 and M2 in the supernatant were analyzed by LC-MS/MS.
(§2) The LC-MS/MS system consisted of Shimadzu 30A UPLC and API 4000 triple quadruple mass spectrometer (AB SCIEX, USA). Data acquisition and analysis were accomplished using Analyst 1.5.2 software. The analytes and IS were chromatographed by injection of 1 μL sample. The mobile phases consisted of solvent A (0.5% formic acid in water) and solvent B (0.5% formic acid in methanol) at a flow rate of 0.3 ml/min on an Eclipse Plus C18 column (2.1 mm × 50 mm, 3.5 μm, Agilent, USA), and the operating temperature was 40°C. The elution condition was 10% solvent B for 0.7 min, ascending to 98% B in 2.3 min, holding for 3.0 min and reequilibrating to 10% B within 0.1 min and maintained for 2.4 min (Jiang JW, 2018). The specific transitions monitored were 305→248 for IMM-H004, 291→234 for M1, 291→248 for M2, 481→305 for IMM-H004G, 385→305 for M4, and 260→183 for IS.

[2] = test system: human liver microsomes (HLMs); test: Kinetics of IMM-H004 demethylation (M1 and M2 formation) in human liver microsomes; format: in vitro ADME; details: substrate IMM-H004
Procedure: as §1, §2

[3] = Excretion in rat urine, bile and feces after iv IMM-H004 citrate; format: in vivo; details: iv IMM-H004 citrate 6 mg/kg
Procedure: After intravenous (iv) injection with IMM-H004 citrate (6 mg/kg, dissolved in saline to yield a concentration of 1.2 mg/ml), rats were housed individually in metabolic cages to allow separate collection of urine and feces until 72 h postdose. Additional rats were bile cannulated under light ether anesthesia. Each rat was housed individually in a metabolic cage and allowed to recover from anesthesia for 2 to 3 h. Then bile duct cannulated rats were iv injected with IMM-H004 citrate (6 mg/kg, dissolved in saline to yield a concentration of 1.2 mg/ml), bile samples were collected until 24 h postdose.
Feces samples were homogenized in 10-fold solvent of water and methanol (1:1) and diluted 10-fold in water. Bile and urine samples were diluted 100-fold in water. The concentrations of IMM-H004, M1, M2, and IMM-H004G in diluted bile, urine, and feces samples were determined by LC-MS/MS.
as §2

[4] = test system: plasma malondialdehyde (MDA); test: Plasma MDA suppression (PD) in MCAO/R rats; format: in vivo, rat; details: iv IMM-H004 citrate 10 mg/kg after reperfusion
Procedure: The plasma pharmacokinetics (PK) and pharmacodynamics (PD) of IMM-H004 and IMM-H004G were investigated in a cerebral ischemia-reperfusion rat model produced by middle cerebral artery occlusion/reperfusion (MCAO/R) after iv administration of IMM-H004. In brief, rats underwent a 1-h MCAO and then received IMM-H004 citrate (10 mg/kg, dissolved in saline to yield a concentration of 2 mg/ml) immediately after reperfusion, an effective dosing time as reported ([Zuo et al., 2015]; [Yang et al., 2017]). For sham surgery, all the arteries were exposed for the surgical period, but the filament was not inserted into the MCA. Blood samples were collected through external jugular vein cannula into heparinized tubes at 0.033, 0.167, 0.5, 1, 2, 4, 6, 8, 12, 24, 36, and 48 h postdose for IMM-H004 and IMM-H004G detection (50 μL of blood at each time point) and at 0.5, 1, 2, 4, 7, and 10 h postdose for malondialdehyde (MDA) detection (80 μL of blood at each time point). Plasma was immediately separated by centrifugation at 900×g for 5 min. Plasma concentrations of IMM-H004 and IMM-H004G in ischemia-reperfusion rats were determined by LC-MS/MS analysis. The PK parameters were calculated by noncompartmental analysis using WinNonlin Version 6.1 (Pharsight, Mountain View, CA). Plasma MDA concentrations in ischemia-reperfusion and sham rats within 24 h were estimated by enzyme-linked immunosorbent assay.

[5] = test system: MCAO/R rats; test: Neuroprotection in transient MCAO/R rats (infarct volume, neurological score); format: in vivo, rat; details: 10 mg/kg iv after reperfusion, 24 h, vs model
From the text: Transient MCAO/R was applied to compare the neuroprotection of IMM-H004 and IMM-H004G. Rats were fasted overnight with free access to water and randomly assigned to different groups. Rats were anesthetized with a mixture of 5% isoflurane and 95% oxygen and maintained with a mixture of 3% isoflurane and 97% oxygen during the surgical procedure. A 4-0 nylon thread, the tip of which was burned (diameter 0.36 mm), was inserted into the right internal carotid artery and advanced until the origin of the right MCA was occluded. After 60 min of the occlusion, the thread was withdrawn to allow reperfusion, and then the rats were returned to the chamber. Saline or edaravone at dose of 6 mg/kg or IMM-H004 citrate and IMM-H004G at dose of 10 mg/kg (dissolved in saline to yield a concentration of 2 mg/ml) were administered by intravenous injection immediately after reperfusion.
The rats were assessed for neurologic deficits at 24 h after reperfusion according to Zea Longa’s five-point scale. […] The animals without symptoms of neurological impairment or dying after the surgery were rejected. All animals were killed 24 h after reperfusion. Brains of the animals were removed and cut into 2 mm-thick slices, for a total of six slices per animal. The slices were immersed in a 2% solution of 2,3,5-triphenyltetrazolium chloride in phosphate buffered saline at 37°C for 20 min and then fixed in 4% formaldehyde overnight. Images of the slices were obtained with a scanner and a computer. The infarct area and the total area were calculated by tracing the areas on the computer screen with Image J. The percentage of the infarct volume was expressed as the infarct volumes (white parts)/the whole volume of the cortex.

Question: With `COc1cc(O)cc2oc(=O)c(N3CCN(C)CC3)c(C)c12` [IMM-H004, 7-hydroxy-5-methoxy-4-methyl-3-(4-methylpiperazin-1-yl)-coumarin] as the compound, how does the “K m of M1 formation (6-demethylation)” value [1] read?
Answer: Its value is 1,244.0 μM.

Question: What about the “K m of M2 formation (N-demethylation)” value [1] of the same compound?
Answer: Its value is 111.9 µM.

Question: What about the “V max of M1 formation (6-demethylation)” value [1] of the same compound?
Answer: Its value is 1.34 nmol/min/mg protein.

Question: And the “V max of M2 formation (N-demethylation)” value [1]?
Answer: The value was 0.12 nmol/min/mg protein.

Question: And the “K m of M1 formation (6-demethylation)” value [2]?
Answer: Its value is 2,935.0 μM.

Question: And the “K m of M2 formation (N-demethylation)” value [2]?
Answer: Its value is 491.4 µM.

Question: And the “V max of M1 formation (6-demethylation)” value [2]?
Answer: Its value is 1.99 nmol/min/mg protein.

Question: And the “V max of M2 formation (N-demethylation)” value [2]?
Answer: Its value is 0.07 nmol/min/mg protein.

Question: And the “recovery of IMM-H004G and IMM-H004 in bile” value ([3]; bile duct cannulated rats, until 24 h)?
Answer: The value was 76.1 % of intake.

Question: What about the “IMM-H004 in fecal specimens” value ([3]; rat feces, until 72 h) of the same compound?
Answer: The value was 18 % of the dose.

Question: What about the “duration of plasma MDA lowering after administration” value [4] of the same compound?
Answer: Its value is “at least 10 h”.

Question: And the “effect on plasma MDA level” value ([4]; vs MCAO/R group)?
Answer: Its value is “significantly lower the increased MDA level at 2 h”.

Question: And the infarct volume [5]?
Answer: The infarct volume was “markedly reduced (p < 0.01)”.

Question: And the neurological test score [5]?
Answer: Its neurological test score is “significant improvement (p < 0.01)”.
